According to patent US20130259830A1, “CRTH2 MODULATORS” (Ironwood Pharmaceuticals, Inc., priority 2010, published 2013):

How the values were obtained:
CRTH2 [1] = target: T1, CRTH2 (Homo sapiens, UniProt Q9Y5Y4); experiment: DPBS CD11b antagonist assay (CD11b expression in eosinophils challenged with 15R-Methyl-PGD2); type: cell-based; details: polymorphonuclear cells in PBS with CaCl2/MgCl2; agonist 15R-Methyl-PGD2 10 nM; eosinophils gated by flow cytometry
T1 construct: endogenous in cells; host or cells: eosinophils in human whole blood
T1 sequence (Q9Y5Y4 1-395): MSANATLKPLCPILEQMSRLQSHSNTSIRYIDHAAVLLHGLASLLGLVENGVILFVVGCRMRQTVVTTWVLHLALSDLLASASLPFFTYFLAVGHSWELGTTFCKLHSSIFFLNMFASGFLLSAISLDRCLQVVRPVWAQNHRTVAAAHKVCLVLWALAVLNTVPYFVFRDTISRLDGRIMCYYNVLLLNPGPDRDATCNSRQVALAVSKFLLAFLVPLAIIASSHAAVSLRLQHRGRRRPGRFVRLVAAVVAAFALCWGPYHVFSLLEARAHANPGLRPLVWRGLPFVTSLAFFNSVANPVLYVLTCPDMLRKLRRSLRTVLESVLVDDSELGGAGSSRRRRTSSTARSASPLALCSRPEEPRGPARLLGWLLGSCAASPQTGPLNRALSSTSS
Experimental: DPBS CD111b Antagonist Assay.
The potential CRTH2 antagonist, activity of certain compounds was tested using a CD11b expression assay using essentially the method described by Monneret et al. (J Pharmacol Exp Ther 304:349-55, 2003). Briefly, polymorphonuclear cells (0.5 ml; 10^6/ml cells) in PBS containing 0.9 mM CaCl2 and 0.5 mM MgCl2) were preincubated with various concentrations of test compounds at room temperature for 10 minutes before they were challenged with the agonist 15R-Methyl-PGD2 (10 nM). The incubations were terminated by the addition of ice-cold FACSFlow (BD Biosciences; Cat#342003) and centrifugation (400 g for 5 minutes at 4° C.). The cells were then incubated for 30 minutes at 4° C. with a mixture of PE-labeled mouse anti-human VLA-4 (5 μl; BD Biosciences) and FITC-labeled mouse anti-human CD11b (10 μl; Beckman Coulter). The cells were then incubated with Optilyse C (0.25 ml; Beckman Coulter) for 15 minutes, centrifuged, and then fixed in PBS (0.4 ml; calcium and magnesium free) containing 1% formaldehyde. The distribution of fluorescence intensities among 60,000 cells was measured by flow cytometry. Eosinophils were gated out on the basis of their granularity (high side scatter) and labeling with VLA-4 (PE fluorescence). CD11b was then measured in the eosinophil region on the basis of fluorescence due to FITC. All data were corrected for the value obtained for the corresponding isotope control antibody.

CRTH2 [2] = target: T1, CRTH2; experiment: Human whole blood CD11b antagonist assay (CD11b expression in eosinophils challenged with 15-R-methyl-PGD2); type: cell-based; details: 37° C. 10 minutes preincubation, agonist 15R-Methyl-PGD2 10 nM, eosinophils gated by flow cytometry
Experimental: Human Whole Blood […] Antagonist Assay (Modified from Nicholson, et al. Pulmonary Pharmacology and Therapeutics: 20 (2007); 52-59).
The potential CRTH2 antagonist activity of certain compounds was tested in human whole blood using an assay that tests the ability of the compounds to block the CD11b expression in eosinophils by 15-R-methyl-PGD2. A CRTH2 antagonist should block CD11b expression by subsequently added 15-Methyl-PGD2. Human whole blood (200 μL) was incubated at 37° C. for 10 minutes in the presence of various concentrations of test compounds before being challenged with the agonist 1-5R-Methyl-PGD2 (10 nM). Reactions were terminated by the addition of ice-cold PBS+0.5% BSA+2 mM EDTA (1 mL) and centrifugation (300×g for 5 minutes at 4° C.) Cells were then incubated at 4° C. for 10 min in the presence of human IgG. Cells were then incubated for 30-45 min with a mixture of PE-Cy5-labeled mouse anti-human CD16 (10 ul; BD Biosciences) and FITC-labeled mouse anti-human CD11b (10 μL; Beckman Coulter.) After rinsing (1 mL ice-cold PBS+0.5% BSA+2 mM EDTA), red blood cells were lysed by the addition of 1 mL ice-cold H2O to the cell pellet for 30 sec-1 min immediately followed by the addition of 3.5% NaCl (300 μL.) Cells were then rinsed (2×−1 ml ice cold PBS+0.5% BSA+2m MEDTA) and fixed in PBS containing 1% formaldehyde. The distribution of fluorescence intensities was measured by flow cytometry. Eosinophils were gated out on the basis of their granularity (high side scatter) and absence of CD-16. CD11b was then measured on this eosinophil population on the basis of fluorescence due to FITC.

Cc1c(Cc2cc3ccccc3n2S(=O)(=O)c2ccccc2)c2c(n1CC(=O)O)CCC(C)(C)C2 [Compound I-1, 2-(2,5,5-trimethyl-3-((1-(phenylsulfonyl)-1H-indol-2-yl)methyl)-4,5,6,7-tetrahydro-1H-indol-1-yl)acetic acid]
IC50 (CRTH2 [1]): < 1 nM

CCOC(=O)N1CCN(S(=O)(=O)c2ccc(Cc3c4c(n(CC(=O)O)c3C)CCOC4)cc2)CC1 [Compound I-2, 2-(3-(4-(4-(Ethoxycarbonyl)piperazin-1-ylsulfonyl)benzyl)-2-methyl-6,7-dihydropyrano[4,3-b]pyrrol-1(4H)-yl)acetic acid]
IC50 (CRTH2 [1]): 1 to 5 nM
IC50 (CRTH2 [2]): 100 to 500 nM

Cc1c(Cc2cccnc2S(=O)(=O)c2ccccc2)c2c(n1CC(=O)O)CC(C)(C)CC2=O [Compound I-3, 2-(2,6,6-trimethyl-4-oxo-3-((2-(phenylsulfonyl)pyridin-3-yl)methyl)-4,5,6,7-tetrahydro-1H-indol-1-yl)acetic acid]
IC50 (CRTH2 [1]): < 1 nM
IC50 (CRTH2 [2]): 5 to 20 nM

Cc1c(Cc2cccnc2S(=O)(=O)C2CC2)c2c(n1CC(=O)O)CC(C)(C)CC2=O [Compound I-4, 2-(3-((2-(cyclopropylsulfonyl)pyridin-3-yl)methyl)-2,6,6-trimethyl-4-oxo-4,5,6,7-tetrahydro-1H-indol-1-yl)acetic acid]
IC50 (CRTH2 [1]): 100 to 500 nM
IC50 (CRTH2 [2]): 100 to 500 nM

Cc1c(Cc2cccnc2S(=O)(=O)c2ccc(F)cc2)c2c(n1CC(=O)O)CC(C)(C)CC2=O [Compound I-5, 2-(3-((2-(4-fluorophenylsulfonyl)pyridin-3-yl)methyl)-2,6,6-trimethyl-4-oxo-4,5,6,7-tetrahydro-1H-indol-1-yl)acetic acid]
IC50 (CRTH2 [1]): < 1 nM
IC50 (CRTH2 [2]): 5 to 20 nM

CCOC(=O)Cn1c(C)c(Cc2cccnc2S(=O)(=O)c2ccc(OC)cc2)c2c1CC(C)(C)CC2=O [Compound I-6, ethyl 2-(3-((2-(4-methoxyphenylsulfonyl)pyridin-3-yl)methyl)-2,6,6-trimethyl-4-oxo-4,5,6,7-tetrahydro-1H-indol-1-yl)acetate]
IC50 (CRTH2 [1]): 5 to 20 nM
IC50 (CRTH2 [2]): 500 to 3000 nM

COc1ccc(S(=O)(=O)c2ncccc2Cc2c3c(n(CC(=O)O)c2C)CC(C)(C)CC3=O)cc1 [Compound I-7, 2-(3-((2-(4-methoxyphenylsulfonyl)pyridin-3-yl)methyl)-2,6,6-trimethyl-4-oxo-4,5,6,7-tetrahydro-1H-indol-1-yl)acetic acid]
IC50 (CRTH2 [1]): < 1 nM
IC50 (CRTH2 [2]): 20 to 100 nM

CCOC(=O)Cn1c(C)c(Cc2cccnc2S(=O)(=O)c2ccc(F)cc2)c2c1CC(C)(C)CC2=O [Compound I-8, ethyl 2-(3-((2-(4-fluorophenylsulfonyl)pyridin-3-yl)methyl)-2,6,6-trimethyl-4-oxo-4,5,6,7-tetrahydro-1H-indol-1-yl)acetate]
IC50 (CRTH2 [1]): 20 to 100 nM
IC50 (CRTH2 [2]): 500 to 3000 nM

CCOC(=O)Cn1c(C)c(Cc2cccnc2S(=O)(=O)c2ccccc2)c2c1CC(C)(C)CC2=O [Compound I-9, ethyl 2-(2,6,6-trimethyl-4-oxo-3-((2-(phenylsulfonyl)pyridin-3-yl)methyl)-4,5,6,7-tetrahydro-1H-indol-1-yl)acetate]
IC50 (CRTH2 [1]): 100 to 500 nM
IC50 (CRTH2 [2]): 500 to 3000 nM

CCOC(=O)Cn1c(C)c(Cc2cccnc2S(=O)(=O)c2ccc(C(F)(F)F)cc2)c2c1CC(C)(C)CC2=O [Compound I-10, Ethyl 2-(2,6,6-trimethyl-4-oxo-3-((2-(4-(trifluoromethyl)phenylsulfonyl)pyridin-3-yl)methyl)-4,5,6,7-tetrahydro-1H-indol-1-yl)acetate]
IC50 (CRTH2 [1]): 1 to 5 nM
IC50 (CRTH2 [2]): 100 to 500 nM

CCOC(=O)Cn1c(C)c(Cc2cccnc2S(=O)(=O)c2cccc(OC)c2)c2c1CC(C)(C)CC2=O [Compound I-11, Ethyl 2-(3-((2-(3-methoxyphenylsulfonyl)pyridin-3-yl)methyl)-2,6,6-trimethyl-4-oxo-4,5,6,7-tetrahydro-1H-indol-1-yl)acetate]
IC50 (CRTH2 [1]): 100 to 500 nM
IC50 (CRTH2 [2]): 500 to 3000 nM

Cc1c(Cc2cccnc2S(=O)(=O)c2ccc(C(F)(F)F)cc2)c2c(n1CC(=O)O)CC(C)(C)CC2=O [Compound I-12, 2-(2,6,6-Trimethyl-4-oxo-3-((2-(4-(trifluoromethyl)phenylsulfonyl)pyridin-3-yl)methyl)-4,5,6,7-tetrahydro-1H-indol-1-yl)acetic acid]
IC50 (CRTH2 [1]): 100 to 500 nM
IC50 (CRTH2 [2]): 500 to 3000 nM

COc1cccc(S(=O)(=O)c2ncccc2Cc2c3c(n(CC(=O)O)c2C)CC(C)(C)CC3=O)c1 [Compound I-13, 2-(3-((2-(3-Methoxyphenylsulfonyl)pyridin-3-yl)methyl)-2,6,6-trimethyl-4-oxo-4,5,6,7-tetrahydro-1H-indol-1-yl)acetic acid]
IC50 (CRTH2 [1]): 1 to 5 nM
IC50 (CRTH2 [2]): 20 to 100 nM

CCOC(=O)Cn1c(C)c(Cc2cccnc2S(=O)(=O)c2ccc(Cl)cc2)c2c1CC(C)(C)CC2=O [Compound I-14, Ethyl 2-(3-((2-(4-chlorophenylsulfonyl)pyridin-3-yl)methyl)-2,6,6-trimethyl-4-oxo-4,5,6,7-tetrahydro-1H-indol-1-yl)acetate]
IC50 (CRTH2 [1]): 100 to 500 nM
IC50 (CRTH2 [2]): 500 to 3000 nM

Cc1c(Cc2cccnc2S(=O)(=O)c2ccc(Cl)cc2)c2c(n1CC(=O)O)CC(C)(C)CC2=O [Compound I-15, 2-(3-((2-(4-Chlorophenylsulfonyl)pyridin-3-yl)methyl)-2,6,6-trimethyl-4-oxo-4,5,6,7-tetrahydro-1H-indol-1-yl)acetic acid]
IC50 (CRTH2 [1]): < 1 nM
IC50 (CRTH2 [2]): 5 to 20 nM

CCOC(=O)Cn1c(C)c(Cc2cccnc2S(=O)(=O)c2ccc(C)cc2)c2c1CC(C)(C)CC2=O [Compound I-16, Ethyl 2-(2,6,6-trimethyl-4-oxo-3-((2-tosylpyridin-3-yl)methyl)-4,5,6,7-tetrahydro-1H-indol-1-yl)acetate]
IC50 (CRTH2 [1]): 20 to 100 nM
IC50 (CRTH2 [2]): 500 to 3000 nM

Cc1c(Cc2cccnc2S(=O)(=O)c2ccccc2C(F)(F)F)c2c(n1CC(=O)O)CC(C)(C)CC2=O [Compound I-17, 2-(2,6,6-Trimethyl-4-oxo-3-((2-(2-(trifluoromethyl)phenylsulfonyl)pyridin-3-yl)methyl)-4,5,6,7-tetrahydro-1H-indol-1-yl)acetic acid]
IC50 (CRTH2 [1]): < 1 nM
IC50 (CRTH2 [2]): 5 to 20 nM

CCOC(=O)Cn1c(C)c(Cc2cccnc2S(=O)(=O)c2ccc(F)cc2F)c2c1CC(C)(C)CC2=O [Compound I-18, Ethyl 2-(3-((2-(2,4-difluorophenylsulfonyl)pyridin-3-yl)methyl)-2,6,6-trimethyl-4-oxo-4,5,6,7-tetrahydro-1H-indol-1-yl)acetate]
IC50 (CRTH2 [1]): 100 to 500 nM
IC50 (CRTH2 [2]): 500 to 3000 nM

Cc1c(Cc2cccnc2S(=O)(=O)c2ccc(F)cc2F)c2c(n1CC(=O)O)CC(C)(C)CC2=O [Compound I-19, 2-(3-((2-(2,4-Difluorophenylsulfonyl)pyridin-3-yl)methyl)-2,6,6-trimethyl-4-oxo-4,5,6,7-tetrahydro-1H-indol-1-yl)acetic acid]
IC50 (CRTH2 [1]): 1 to 5 nM
IC50 (CRTH2 [2]): 20 to 100 nM

Cc1c(Sc2ccccc2N(C)S(=O)(=O)c2ccccc2)c2c(n1CC(=O)O)CC(C)(C)CC2 [Compound I-53, 2-(2,6,6-trimethyl-3-(2-(N-methylphenylsulfonamido)phenylthio)-4,5,6,7-tetrahydro-1H-indol-1-yl)acetic acid]
IC50 (CRTH2 [2]): 500 to 3000 nM
